Reference: paper PMC11189555, “Aryl amino acetamides prevent Plasmodium falciparum ring development via targeting the lipid-transfer protein PfSTART1” (Nature Communications, 2024)

What was measured:
[1] = tested on: P. falciparum NF54 gametocytes fed to An. stephensi; assay: Standard membrane feeding assay (London School of Hygiene and Tropical Medicine); assay type: in vivo, Plasmodium falciparum; settings: W-991 1, 50, 100 nM; second insectary; Fig S7C-D
Description: These assays were performed at the Walter and Eliza Hall Institute and at the London School of Hygiene and Tropical Medicine using slightly different approaches which are described in the Supplementary Information. […]
Gametocyte culturing and standard membrane feeding assay (London School of Hygiene and Tropical Medicine). P. falciparum NF54 gametocytes were prepared for blood-feeding to mosquitoes according to the method described by 13, with some slight modifications. Briefly, gametocyte cultures seeded at 2% overall parasitaemia and 4% haematocrit were maintained at 37 °C for 17 days with daily media changes.
Gametocyte functional viability was assessed by ex-flagellation assay at day 14 post induction, observed by light microscopy. An. stephensi (SD500 strain) were reared as […]
Gametocyte aliquots from a single NF54 culture, produced as above, were incubated […]
or culture medium only (no -drug control) from day 14 until day 17 when SMFA was carried out. Fresh drug -containing media was provided each day during this exposure.
Pots of 70 -80 two- to five-day old female An. stephensi mosquitoes were allowed to feed on 500 µL of the respective culture+drug mixture, presented to each pot in a pre - heated 3D -printed water channel membrane feeder 15, until fully fed. […]

[2] = tested on: ring-stage parasites; assay: Parasite reduction ratio assay; assay type: cell-based, Plasmodium falciparum
Description: Parasite reduction ratio assay. This was performed as previously described 9,10.
Briefly, asynchronous ring -stage parasites at 0.5% parasitemia and 2% haematocrit were exposed to compounds at 10 x EC50 of growth for five days with daily drug renewal. After each 24 h, a well from each treatment group was taken and washed three times in complete RPMI and final volume adjusted to 2% haematocrit. The washed culture was then aliquoted into a 96 well U-bottom plate and a 1:3 serial dilution into fresh uninfected RBCs was performed with four technical replicates for each time point. Plates were maintained in normal culturing conditions: media was replaced, and fresh RBCs given 1-2 times a week for three weeks, after which parasite growth was measured via lactate dehydrogenase assays. The number of viable parasites was calculated using the formula xn-1 +1, where x is the dilution factor and n is the number of wells that contain parasite growth. The viable parasite value was then expressed in log units and parasite reduction ratio was calculated as a decrease in […]

CC(C)(Nc1ccc(Cl)c(S(=O)(=O)N2CCOCC2)c1)C(=O)Nc1ccc(F)c(Cl)c1 [W-991]
transmission to mosquitoes [1]: reduction in transmission | lag phases ([2]; 60 nM W-991, lag phases 0-24 h, 48-96 h): more than 24 h | viable parasites after treatment ([2]; 10 x EC50 (60 nM W-991) for up to 5 days, then 21 days culture): a proportion of parasites remained after a treatment period of 5 days | killing profile ([2]; 10xEC50: 75 nM CQ, 60 nM W-991): slow | PRR calculations: log viability at Hours 24 ([2]; Replicate 1, 24 Hours): 4.771 | PRR calculations: log viability at Hours 72 ([2]; Replicate 1, 72 Hours): 3.34 | PRR ([2]; Replicate 1, PRR calculations): 1.431 | log(parasite viability) +1 ([2]; Replicate 1, T=1): 4.771 | Parasite viability ([2]; Replicate 1, T=1, 1:3 dilution): 59049 | log(parasite viability) +1 ([2]; Replicate 1, T=2): 3.34 | Parasite viability ([2]; Replicate 1, T=2, 1:3 dilution): 2187 | log(parasite viability) +1 ([2]; Replicate 1, T=3): 3.34 | Parasite viability ([2]; Replicate 1, T=3, 1:3 dilution): 2187 | log(parasite viability) +1 ([2]; Replicate 1, T=4): 3.34 | Parasite viability ([2]; Replicate 1, T=4, 1:3 dilution): 2187 | log(parasite viability) +1 ([2]; Replicate 1, T=5): 2.863 | Parasite viability ([2]; Replicate 1, T=5, 1:3 dilution): 729 | log(parasite viability) +1 used in PRR calculations ([2]; Replicate 2, Hours 72): 3.34 | log(parasite viability) +1 used in PRR calculations ([2]; Replicate 2, Hours 120): 1.914 | PRR ([2]; Replicate 2, PRR calculations): 1.426 | Parasite viability +1 ([2]; Replicate 2, T=1): 177148 | log(parasite viability) +1 ([2]; Replicate 2, T=1): 5.248 | Parasite viability ([2]; Replicate 2, T=1, 1:3 dilution): 177147 | Parasite viability +1 ([2]; Replicate 2, T=2): 2188 | log(parasite viability) +1 ([2]; Replicate 2, T=2): 3.34 | Parasite viability ([2]; Replicate 2, T=2, 1:3 dilution): 2187 | Parasite viability +1 ([2]; Replicate 2, T=3): 2188 | log(parasite viability) +1 ([2]; Replicate 2, T=3): 3.34 | Parasite viability ([2]; Replicate 2, T=3, 1:3 dilution): 2187 | Parasite viability +1 ([2]; Replicate 2, T=4): 2188 | log(parasite viability) +1 ([2]; Replicate 2, T=4): 3.34 | Parasite viability ([2]; Replicate 2, T=4, 1:3 dilution): 2187 | Parasite viability +1 ([2]; Replicate 2, T=5): 82 | log(parasite viability) +1 ([2]; Replicate 2, T=5): 1.914 | Parasite viability ([2]; Replicate 2, T=5, 1:3 dilution): 81 | Parasite viability (1:3 dilution) ([2]; replicate 3, T=1): 177147 | log(parasite viability) +1 ([2]; replicate 3, T=1): 5.248 | Parasite viability (1:3 dilution) ([2]; replicate 3, T=2): 2187 | log(parasite viability) +1 ([2]; replicate 3, T=2 (48 hours in PRR calculations)): 3.34 | Parasite viability (1:3 dilution) ([2]; replicate 3, T=3): 729 | log(parasite viability) +1 ([2]; replicate 3, T=3 (72 hours in PRR calculations)): 2.863 | Parasite viability (1:3 dilution) ([2]; replicate 3, T=4): 19683 | log(parasite viability) +1 ([2]; replicate 3, T=4): 4.294 | Parasite viability (1:3 dilution) ([2]; replicate 3, T=5): 81 | log(parasite viability) +1 ([2]; replicate 3, T=5 (120 hours in PRR calculations)): 1.914 | PRR ([2]; replicate 3, difference of log viability over 48 h (CQ 0-48 hours, W991 72-120 hours)): 0.9495
